Results as given in patent publication US12655174B2, “Adenosine A3 receptor agonists, preparation methods and uses thereof” (ZHEJIANG VIMGREEN PHARMACEUTICALS, LTD., priority 2020, dated 2026).

Legend:
[1] = molecular target: T1, ADORA3 receptor (CHO cells stably expressing ADORA3 receptor) (Homo sapiens, UniProt P0DMS8); assay: Effect of compound on intracellular cAMP level by adenosine A3 receptor agonism; type: cell-based; details: forskolin-stimulated
T1 construct: expressed in transfected cells
T1 sequence (P0DMS8 1-318): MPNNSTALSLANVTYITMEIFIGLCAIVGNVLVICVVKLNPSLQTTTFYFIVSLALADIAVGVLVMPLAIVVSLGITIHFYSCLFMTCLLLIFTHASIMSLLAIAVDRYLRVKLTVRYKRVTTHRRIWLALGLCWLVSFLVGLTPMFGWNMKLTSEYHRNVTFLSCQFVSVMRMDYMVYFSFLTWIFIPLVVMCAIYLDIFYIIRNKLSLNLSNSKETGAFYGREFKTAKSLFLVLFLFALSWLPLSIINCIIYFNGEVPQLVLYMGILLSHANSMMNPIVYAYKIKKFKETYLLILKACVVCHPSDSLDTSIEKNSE
Description: Example 26: Test the Effect of Compound on Intracellular cAMP Level by Adenosine A3 Receptor Agonism
• 1) 1×HBSS with Ca2+ and Mg2+ (14 mL), 1 M HEPES (75 μL), a 7.5% (w/v) BSA stabilizer (pH 7.4, 200 μL), and 20 mM rolipram (7.5 μL) were respectively prepared as cAMP assay buffer. • 2) Preparation of compound source plate • a. […] A 10 mM stock solution was subjected to a 3-fold serial dilution by 100% (v/v) DMSO to prepare 10 doses of the test substance. • c. 1 mM of Forskolin was prepared by 100% (v/v) DMSO. • 3) Preparation of test plate • a. Prior to the assay, CHO cells stably expressing ADORA3 receptor were harvested and the cells were counted by using a Countess cell counter. […] The cells were seeded at a density of 2,000 cells/well in a 384-well plate. • 4) 10 nL/well of the serially diluted compound and 10 nL/well of 1 mM of forskolin were transferred to each well with ADORA3 receptor expressing cells by using Echo550. • 5) A cell plate was centrifuged at 1,000 rpm for 1 minute and then stirred at 600 rpm for 2 minutes. The plate was incubated at 37° C. • 6) An Eu-cAMP tracer working solution and an Ulight-anti-cAMP working solution were prepared according to the following table.
• 7) 5 μl/well of the Eu-cAMP tracer working solution and 5 μl/well of the Ulight-anti-cAMP working solution were added to each well of the plate. […] 2. Data Analysis • 1) An activation percentage was calculated by using the following formula:
[formula] • % Activation: activation percentage • Ratiocpd: ratio of emissivity of test compound • RatioLow control: ratio of low emissivity • RatioHigh control: ratio of high emissivity • 2) EC50 was calculated by an XLfit using the Hill equation to fit the activity percentage and a log of a compound concentration. 3. Test Result

ADORA3 receptor = molecular target: T2, ADORA3 receptor (Homo sapiens, UniProt P0DMS8); assay: Agonistic effect on adenosine A3 receptor by FLIPR assay (calcium flux assay); type: cell-based; details: agonist mode
T2 sequence (P0DMS8 1-318): T1 sequence (P0DMS8 1-318)
Description: Example 27: Agonistic Effect of Compound on Adenosine A3 Receptor by FLIPR Assay (Calcium Flux Assay)
First Day: Cell Inoculation
• 1) With regard to ADORA3 receptor, cultured cells were used for inoculation: the culture medium was aspirated and the cells were washed twice with 10 mL of DPBS. 2 mL of 0.05% EDTA-trypsin was added and the cells were incubated at 37° C. for 1 minute. Then 10 mL of the culture medium was added to stop the digestion and the cell suspension was transferred to a 50-mL tapered tube. • 2) The 50-mL tapered tube containing the various cells was centrifuged at 300 g for 5 minutes. • 3) A supernatant was aspirated and no cells should be aspirated. • 4) The cell precipitate was resuspended in 6-8 mL of the culture medium, and then 0.5 mL of the cells were taken out for cell counting by using a Vi-cell XR cell viability analyzer. • 5) The cell suspension was diluted to 1×10^6 cells/mL (20 μL of 20,000 cells per well) in the culture medium and the cells were inoculated into a cell plate (384-well Poly-D-lysine protein-coated plate, Greiner-781946). • 6) The plate was placed in a 37° C./5% CO2 incubator for 16-20 hours. Second Day: • 1) Preparation of 2×Fluo-4 Direct™ uptaking dye • a. Preparation of probenecid solution • 1 mL of FLIPR assay buffer was added to 77 mg of probenecid (provided by Fluo-4 Direct™ calcium assay kit) to be prepared into 250 mM of a probenecid solution. The fresh probenecid solution was used daily. • b. 2×(8 μM) Fluo-4 Direct™ loading dye (per 10 mL)
A vial of the Fluo-4 Direct™ crystal was thawed and then 10 mL of the FLTPR analytical buffer was added to the vial. Then 0.2 mL of 250 mM of a probe solution was added to every 10 mL Fluo-4 Direct™ crystal to a final assay concentration of 2.5 mM. The solution was vortexed and stood for >5 min at a dark place. 2×Fluo-4 Direct™ uptaking dye was freshly prepared daily. • 2) Compound preparation • a. Preparation of compound plate: all reference and test compounds were serially diluted 4-fold in 10 points by using an Echo liquid processor and then 900 nL of the diluted compounds were transferred to a compound plate. • b. 30 μL FLIPR analytical buffer was added to the compound plate and the plate was centrifuged at 300 g for 1 minute. • 3) FLIPR analysis • a. With regard to ADORA3 receptor: firstly, the cell plate was taken out from a culture box. The culture medium was then aspirated and 20 μL of the FLIPR analytical buffer was added. The cell plate was placed in an incubator for 45 minutes and at a room temperature for 15 minutes. • b. To run an experimental solution on […], 10 μL of the FLIPR analytical buffer was transferred from the compound plate to a cell plate, and then the fluorescent signal was read. Then 10 μL of a compound solution was transferred from the compound plate to the cell plate and the fluorescence signal was read. “Max−min” was calculated from Reader 91 to an allowed maximum value. • c. With regard to agonist: activation %=(RLU−LC)/(HC−LC)*100, • wherein RLU=relative light unit, allowed maximum signal was 91; HC=average signal of high concentration agonist; and LC=mean signal of DMSO well. • d. Data were fitted to a model “log (agonist) versus response-variable slope” by using GraphPad Prism 5 to determine an EC50 value. • e. […] 2. Test Result

[2] = Pharmacokinetic test of compound in SD rat; type: in vivo; details: SD rats, intragastric administration (IG), cassette dosing
Description: Example 28: Pharmacokinetic Test of Compound in SD Rat
The animal species used in this experiment were SD rats. There were 3 animals per group. The rats were dosed in cassette format, i.e., multiple (1-6) different compounds were dosed simultaneously to the same group of the SD rats. The vehicle used for the drug was 5% DMSO+5% Solutl+90% ([…] methylcellulose M450), and the administration route was intragastric administration (IG).

SMILES	EC50 [1] [nM]	EC50 (ADORA3 receptor) [nM]	AUC_D [2] [kg·ng·h/mL/mg]
CNC(=O)[C@H]1O[C@@H](n2cnc3c(NCc4cc(C)ccn4)nc(-c4cncc(F)c4)nc32)[C@H](O)[C@@H]1O [compound 71, (2S,3S,4R,5R)-5-(2-(5-fluoropyridin-3-yl)-6-(((4-methylpyridin-2-yl)methyl)amino)-9H-purin-9-yl)-3,4-dihydroxyl-N-methyltetrahydrofuran-2-carboxamide]	< 0.51	1.93	757.44
CNC(=O)[C@H]1O[C@@H](n2cnc3c(NCc4cccc(C)n4)nc(-c4cncc(F)c4)nc32)[C@H](O)[C@@H]1O [compound 106]	3.02	17.6	521.57
CNC(=O)[C@H]1O[C@@H](n2cnc3c(NCc4cccc(C)n4)nc(-c4cncc(Cl)c4)nc32)[C@H](O)[C@@H]1O [compound 112]	3.53	44.4	1790.18
CNC(=O)[C@H]1O[C@@H](n2cnc3c(NCc4cccc(OC)n4)nc(-c4cncc(Cl)c4)nc32)[C@H](O)[C@@H]1O [compound 159]	4.42	59.3	–
CNC(=O)[C@H]1O[C@@H](n2cnc3c(NCc4cc(C)ccc4Cl)nc(-c4cncc(Cl)c4)nc32)[C@H](O)[C@@H]1O [compound 177, (2S,3S,4R,5R)-5-(6-(2-chloro-5-methylbenzylamino)-2-(5-chloropyridin-3-yl)-9H-purin-9-yl)-3,4-dihydroxyl-N-methyl-tetrahydrofuran-2-formamide]	2.08	70.3	5247.70
CNC(=O)[C@H]1O[C@@H](n2cnc3c(NCc4cc(Cl)ccn4)nc(-c4cncc(F)c4)nc32)[C@H](O)[C@@H]1O [compound 183, (2S,3S,4R,5R)-5-(6-((4-chloropyridin-2-yl)methylamino)-2-(5-fluoropyridin-3-yl)-9H-purin-9-yl)-3,4-dihydroxyl-N-methyl-tetrahydrofuran-2-formamide]	< 0.51	9.07	947.63

More lines, now with the values ahead:

EC50 [1] [nM]	EC50 (ADORA3 receptor) [nM]	AUC_D [2] [kg·ng·h/mL/mg]	SMILES
2.73	10.9	161.47	CNC(=O)[C@H]1OC(n2cnc3c(NCc4ccccn4)nc(-c4cncc(F)c4)nc32)[C@H](O)[C@@H]1O (stereo in doubt) [compound 305, (2S,3S,4R,5S)-5-(2-(5-fluoropyridin-3-yl)-6-((pyridin-2-ylmethyl)amino)-9H-purin-9-yl)-3,4-dihydroxyl-N-methyltetrahydrofuran-2-carboxamide]
< 0.51	13	–	CNC(=O)[C@H]1O[C@@H](n2cnc3c(NCc4cc(Cl)ccn4)nc(-c4cncc(Cl)c4)nc32)[C@H](O)[C@@H]1O [compound 184, (2S,3S,4R,5R)-5-(6-((4-chloropyridin-2-yl)methylamino)-2-(5-chloropyridin-3-yl)-9H-purin-9-yl)-3,4-dihydroxyl-N-methyl-tetrahydrofuran-2-formamide]
< 0.51	11.8	786.27	CNC(=O)[C@H]1O[C@@H](n2cnc3c(NCc4cc(C)ccn4)nc(-c4cccnc4)nc32)[C@H](O)[C@@H]1O [compound 186, (2S,3S,4R,5R)-3,4-dihydroxyl-N-methyl-5-(6-((4-methylpyridin-2-yl)methylamino)-2-(pyridin-3-yl)-9H-purin-9-yl)-tetrahydrofuran-2-formamide]
1.2	33.5	20055.61	CNC(=O)[C@H]1O[C@@H](n2cnc3c(NCc4cc(C)ccc4F)nc(-c4cncc(Cl)c4)nc32)[C@H](O)[C@@H]1O [compound 226, (2S,3S,4R,5R)-5-(2-(5-chloropyridin-3-yl)-6-((2-fluoro-5-methylbenzyl)amino)-9H-purin-9-yl)-3,4-dihydroxyl-N-methyltetrahydrofuran-2-carboxamide]
11.6	98.5	706.00	[2H]C([2H])([2H])NC(=O)[C@H]1O[C@@H](n2cnc3c(NCc4ccco4)nc(-c4cncc(Cl)c4)nc32)[C@H](O)[C@@H]1O [compound 256, (2S,3S,4R,5R)-5-(2-(5-chloropyridin-3-yl)-6-((furan-2-ylmethyl)amino)-9H-purin-9-yl)-3,4-dihydroxyl-N-(methyl-d3)tetrahydrofuran-2-carboxamide]
< 0.51	3.27	2016.46	CNC(=O)[C@H]1O[C@@H](n2cnc3c(NCc4cc(C)ccn4)nc(-c4cncc(Cl)c4)nc32)[C@H](O)[C@@H]1O [compound 293, (2S,3S,4R,5R)-5-(2-(5-chloropyridin-3-yl)-6-(((4-methylpyridin-2-yl)methyl)amino)-9H-purin-9-yl)-3,4-dihydroxyl-N-methyltetrahydrofuran-2-carboxamide]
1.28	53.6	–	CNC(=O)[C@H]1O[C@@H](n2cnc3c(NCc4cc(OC)ccn4)nc(-c4cncc(Cl)c4)nc32)[C@H](O)[C@@H]1O [compound 296, (2S,3S,4R,5R)-5-(2-(5-chloropyridin-3-yl)-6-(((4-methoxypyridin-2-yl)methyl)amino)-9H-purin-9-yl)-3,4-dihydroxyl-N-methyltetrahydrofuran-2-carboxamide]
5.81	39.2	659.04	CNC(=O)[C@H]1O[C@@H](n2cnc3c(NCc4ccccn4)nc(-c4cncc(Cl)c4)nc32)[C@H](O)[C@@H]1O [compound 306, (2S,3S,4R,5S)-5-(2-(5-chloropyridin-3-yl)-6-((pyridin-2-lymethyl)amino)-9H-purin-9-yl)-3,4-dihydroxyl-N-methyltetrahydrofuran-2-carboxamide]
